Experimental data reported in patent US9730445B2, “Herbicidal compositions comprising 4-amino-3-chloro-5-fluoro-6-(4-chloro-2-fluoro-3-methoxyphenyl) pyridine-2-carboxylic acid or a derivative thereof and fungicides” (DOW AGROSCIENCES LLC, priority 2013, dated 2017).
“And” between values parts separate entries of the source, which are not always exact repeats. Identical values can stand only once.

Tests used:
Assay in all cases: Postemergence foliar-applied weed control, direct-seeded rice (greenhouse)
[1] = tested on: CYPIR; type: in vivo, Cyperus iria L. (rice flatsedge); conditions: 21 DAA
Method: Seeds or nutlets of the desired test plant species were planted in a soil matrix prepared by mixing aloam or sandy loam soil (e.g., 28.6 percent silt, 18.8 percent clay, and 52.6 percent sand, with a pH of about 5.8 and an organic matter content of about 1.8 percent) and calcareous grit in an 80 to 20 ratio. The soil matrix was contained in plastic pots with a volume of 1 quart and a surface area of 83.6 square centimeters (cm^2). […] The plants were grown for 8-22 days in a greenhouse with an approximate 14 hour (h) photoperiod which was maintained at about 29° C. during the day and 26° C. during the night. Nutrients (Peters Excel® 15-5-15 5-Ca 2-Mg and iron chelate) were applied in the irrigation solution as needed and water was added on a regular basis. Supplemental lighting was provided with overhead metal halide 1000-Watt lamps as necessary. The plants were employed for testing when they reached the first through fourth true leaf stage.
(§1) Treatments consisted of the acid or esters of 4-amino-3-chloro-5-fluoro-6-(4-chloro-2-fluoro-3-methoxy-phenyl)pyridine-2-carboxylic acid (Compound A), each formulated as an SC (suspension concentrate), and various fungicidal components alone and in combination. Forms of compound A were applied on an acid equivalent basis.
(§2) For treatments comprised of formulated compounds, measured amounts of compounds were placed individually in 25 mL glass vials and diluted in a volume of 1.25% volume per volume (v/v) Agri-Dex® crop oil concentrate to obtain 12× stock solutions. […] Application solutions were prepared by adding an appropriate amount of each stock solution (e.g., 1 mL) and diluted to the appropriate final concentrations with the addition of […] of an aqueous mixture of 1.25% (v/v) crop oil concentrate so that the final spray solutions contained 1.25+/−0.05% (v/v) crop oil concentrate.
(§3) For treatments comprised of technical compounds, weighed amounts can be placed individually in 25 mL glass vials and dissolved in a volume of 97:3 volume per volume (v/v) acetone/dimethyl sulfoxide (DMSO) to obtain 12× stock solutions. […] When technical materials are used, the concentrated stock solutions can be added to the spray solutions so that the final acetone and DMSO concentrations of the application solutions are 16.2% and 0.5%, respectively.
(§4) As required, additional water and/or 97:3 v/v acetone/DMSO was added to individual application solutions so that the final acetone and DMSO concentrations of the application solutions being compared were 8.1% and 0.25%, respectively
(§5) All stock solutions and applications solutions were visually inspected for compound compatibility prior to application. Spray solutions were applied to the plant material with an overhead Mandel track sprayer equipped with 8002E nozzles calibrated to deliver 187 L/ha over an application area of 0.503 square meters (m^2) at a spray height of 18 to 20 inches (46 to 50 cm) above average plant canopy height. Control plants were sprayed in the same manner with the solvent blank.
The treated plants and control plants were placed in a greenhouse as described above and watered by sub-irrigation to prevent wash-off of the test compounds. After approximately 3 weeks, the condition of the test plants as compared with that of the untreated plants was determined visually and scored on a scale of 0 to 100 percent where 0 corresponds to no injury or growth inhibition and 100 corresponds to complete kill.
Colby's equation was used to determine the herbicidal effects expected from the mixtures (Colby, S. R. Calculation of the synergistic and antagonistic response of herbicide combinations. Weeds 1967, 15, 20-22.).
The following equation was used to calculate the expected activity of mixtures containing two active ingredients, A and B: Expected=A+B−(A×B/100)

[2] = tested on: LEFCH; type: in vivo, Leptochloa chinensis (L.) Nees (Chinese sprangletop)
[3] = tested on: ECHCO; type: in vivo, Echinochloa colonum (L.) LINK (junglerice)
Excerpt: Seeds or nutlets of the desired test plant species were planted in a soil matrix prepared by mixing aloam or sandy loam soil (e.g., 28.6 percent silt, 18.8 percent clay, and 52.6 percent sand, with a pH of about 5.8 and an organic matter content of about 1.8 percent) and calcareous grit in an 80 to 20 ratio. The soil matrix was contained in plastic pots with a volume of 1 quart and a surface area of 83.6 square centimeters (cm^2). When required to ensure good germination and healthy plants, a fungicide treatment and/or other chemical or physical treatment was applied. The plants were grown for 8-22 days in a greenhouse with an approximate 14 hour (h) photoperiod which was maintained at about 29° C. during the day and 26° C. during the night. Nutrients (Peters Excel® 15-5-15 5-Ca 2-Mg and iron chelate) were applied in the irrigation solution as needed and water was added on a regular basis. Supplemental lighting was provided with overhead metal halide 1000-Watt lamps as necessary. The plants were employed for testing when they reached the first through fourth true leaf stage.
as §1
Treatment requirements were calculated based upon the rates being tested, the concentration of active ingredient or acid equivalent in the formulation and a 12 milliliter (mL) application volume at a rate of 187 liters per hectare (L/ha).
as §2, §3, §4, §5
The treated plants and control plants were placed in a greenhouse as described above and watered by sub-irrigation to prevent wash-off of the test compounds. After approximately 3 weeks, the condition of the test plants as compared with that of the untreated plants was determined visually and scored on a scale of 0 to 100 percent where 0 corresponds to no injury or growth inhibition and 100 corresponds to complete kill. […]

[4] = r38-39 ester 8/16 g ae/ha alone, r40 isotianil 380 g ai/ha alone, r41-42 ester 8/16 + 380

## COc1c(Cl)ccc(-c2nc(C(=O)OCc3ccccc3)c(Cl)c(N)c2F)c1F [Compound A Benzyl Ester]
[1]; r23-24 ester 16/32 g ae/ha alone, r25 pyroquilon 925 g ai/ha alone, r26-27 ester 16/32 + 925
  Visual Weed Control (%) - 21 DAA CYPIR Obs: 85% and 99%
[1]; r26-27 ester 16/32 g ae/ha alone, r28-29 isoprothiolane 266/533 g ai/ha alone, r30-33 ester 16/32 at each of 266, 533
  Visual Weed Control (%) - 21 DAA CYPIR Obs: 85% and 99%
[1]; r29-30 ester 8/16 g ae/ha alone, r31-33 kasugamycin 17.5/35/70 g ai/ha alone, r34-39 ester 8/16 at each of 17.5, 35, 70
  Visual Weed Control (%)—21 DAA CYPIR Obs: 50% and 70%
[1]; r45 ester 8 g ae/ha alone, r46-48 hexaconazole 25/50/100 g ai/ha alone, r49-51 ester 8 + 25/50/100
  Visual Weed Control (%)—21 DAA CYPIR Obs: 35%
[2]; 19 DAA, r9-11 ester 8/16/32 g ae/ha alone, r12-13 flutolanil 280/560 g ai/ha alone, r14-19 ester 8/16/32 at each of 280, 560
  Visual Weed Control (%) - 19 DAA LEFCH Obs: 45% and 50%
[2]; r9-11 ester 8/16/32 g ae/ha alone, r12-14 kasugamycin 17.5/35/70 g ai/ha alone, r15-23 ester 8/16/32 at each of 17.5, 35, 70
  Visual Weed Control (%)—21 DAA LEFCH Obs: 40% and 65%
[2]; r10-11 ester 16/32 g ae/ha alone, r12 mancozeb 840 g ai/ha alone, r13-14 ester 16/32 + 840
  Visual Weed Control (%) - 21 DAA LEFCH Obs: 15% and 25%
[2]; r10-12 ester 8/16/32 g ae/ha alone, r13-14 isoprothiolane 266/533 g ai/ha alone, r15-20 ester 8/16/32 at each of 266, 533
  Visual Weed Control (%) - 21 DAA LEFCH Obs: 50% and 60% and 70%
[2]; [4]
  Visual Weed Control (%)—21 DAA LEFCH Obs: 25% and 40%
[2]; r42-43 ester 16/32 g ae/ha alone, r44-46 difenoconazole 50/100/200 g ai/ha alone, r47-52 ester 16/32 at each of 50, 100, 200
  Visual Weed Control (%) - 21 DAA LEFCH Obs: 25% and 43%
[3]; r9-11 ester 8/16/32 g ae/ha alone, r12-13 carbendazim 125/250 g ai/ha alone, r14-19 ester 8/16/32 at each of 125, 250
  Visual Weed Control (%) - 19 DAA ECHCO Obs: 90% and 95% and 65%
[3]; r9-11 ester 8/16/32 g ae/ha alone, r12-13 flutolanil 280/560 g ai/ha alone, r14-19 ester 8/16/32 at each of 280, 560
  Visual Weed Control (%) - 19 DAA ECHCO Obs: 90% and 95% and 65%
[3]; r9-11 ester 8/16/32 g ae/ha alone, r12-14 hexaconazole 25/50/100 g ai/ha alone, r15-23 ester 8/16/32 at each of 25, 50, 100
  Visual Weed Control (%)—21 DAA ECHCO Obs: 65% and 85% and 50%
[3]; [4]
  Visual Weed Control (%)—21 DAA ECHCO Obs: 50% and 65%
